This note sets out measurements from US20240182445A1 (ONO PHARMACEUTICAL CO., LTD., priority 2019, published 2024).

One experiment deals with T1, human TREK-1 (Homo sapiens, UniProt O95069).
T1 construct: expressed in transfected cells
T1 sequence (O95069 1-426): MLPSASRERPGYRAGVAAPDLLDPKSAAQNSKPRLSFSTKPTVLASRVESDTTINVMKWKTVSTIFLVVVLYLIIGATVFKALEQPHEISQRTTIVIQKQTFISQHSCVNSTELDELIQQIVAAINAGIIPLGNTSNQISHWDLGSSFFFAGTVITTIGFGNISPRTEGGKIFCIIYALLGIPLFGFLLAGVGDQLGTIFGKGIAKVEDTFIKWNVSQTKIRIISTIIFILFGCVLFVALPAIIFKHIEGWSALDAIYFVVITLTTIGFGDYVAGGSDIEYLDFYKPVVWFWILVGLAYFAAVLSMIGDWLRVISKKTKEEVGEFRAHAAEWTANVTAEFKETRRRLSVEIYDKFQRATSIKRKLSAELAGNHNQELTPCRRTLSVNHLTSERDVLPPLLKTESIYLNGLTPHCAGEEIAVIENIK
The experiment in a line: TREK-1 Thallium (Tl+) flux assay, Method 1. Type of experiment: cell-based. The following applies: TREK-1 Thallium (Tl+) flux assay, Method 1. Put shortly:
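CHO-K1 cells stably expressing human TREK-1, loaded with Thallos dye, received compound or 0.3% DMSO vehicle for 10 min before thallium stimulus buffer. ΔRatio is fluorescence at 25 s after thallium addition over mean pre-addition fluorescence; % inhibition calculated from it.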
Compound `Cc1cc(OCc2ccccc2)ccc1NC(=O)c1c(Cl)cnn1[C@H]1CC[C@@H](NC(=O)OC(C)(C)C)CC1` [Compound 404, tert-butyl (cis-4-(5-((4-(benzyloxy)-2-methylphenyl)carbamoyl)-4-chloro-1H-pyrazol-1-yl)cyclohexyl)carbamate] yielded a concentration for half-maximal inhibition (IC50) of 2300 nM.

In turn, `COc1ccc(-c2cnc(NC(=O)c3c(Cl)cnn3C3CCN(C(C)=O)CC3)c(C)c2)cc1Cl` [Compound 434, 1-(1-acetylpiperidin-4-yl)-4-chloro-N-(5-(3-chloro-4-methoxyphenyl)-3-methylpyridin-2-yl)-1H-pyrazole-5-carboxamide] returned an IC50 of 7430 nM.

For `CC(=O)N1CCC(n2ncc(Cl)c2C(=O)Nc2ncc(-c3cnc4ccccc4c3)cc2C)CC1` [Compound 422, 1-(1-acetylpiperidin-4-yl)-4-chloro-N-(3-methyl-5-(quinolin-3-yl)pyridin-2-yl)-1H-pyrazole-5-carboxamide], it took 4460 nM to reach half-maximal inhibition (IC50).

`CCc1cc(-c2cnc(NC(=O)c3c(Cl)cnn3C3CCN(C(=O)OC(C)(C)C)CC3)c(C)c2)ccc1OC` [Compound 408, tert-butyl 4-(4-chloro-5-((5-(3-ethyl-4-methoxyphenyl)-3-methylpyridin-2-yl)carbamoyl)-1H-pyrazol-1-yl)piperidine-1-carboxylate] displayed a 50% inhibitory concentration (IC50) of 2670 nM.

Consider `CCCCOc1ccc(-c2cnc(NC(=O)c3c(Cl)cnn3C3CCN(C(C)=O)CC3)c(C)c2)cc1` [Compound 416, 1-(1-acetylpiperidin-4-yl)-N-(5-(4-butoxyphenyl)-3-methylpyridin-2-yl)-4-chloro-1H-pyrazole-5-carboxamide], for which the IC50 amounted to 4070 nM.

Staying with this experiment, now noted: TREK-1 Thallium (Tl+) flux assay; no *^12 (Method 2) mark on these rows.
Compound `Cn1nc(Cl)c(C(=O)Nc2ncc(C#Cc3ccccc3)cc2F)c1-c1ccc2c(cnn2C)c1` [Compound 372, 3-chloro-N-(3-fluoro-5-(phenylethynyl)pyridin-2-yl)-1-methyl-5-(1-methyl-1H-indazol-5-yl)-1H-pyrazole-4-carboxamide] gave an IC50 of 1080 nM.

For `Cc1cc(C#Cc2ccccc2)cnc1NC(=O)c1c(Cl)cnn1C(C)CNC(=O)OC(C)(C)C` (stereo not shown) [Compound 239, tert-butyl (2-(4-chloro-5-((3-methyl-5-(phenylethynyl)pyridin-2-yl)carbamoyl)-1H-pyrazol-1-yl)propyl)carbamate], the IC50 came out at 370 nM.

In turn, `CCC(=O)N1CCOC(Cn2ncc(Cl)c2C(=O)Nc2ncc(C#Cc3ccc(F)cc3)cc2C)C1` (stereo not shown) [Compound 347, 4-chloro-N-(5-((4-fluorophenyl)ethynyl)-3-methylpyridin-2-yl)-1-((4-propionylmorpholin-2-yl)methyl)-1H-pyrazole-5-carboxamide] yielded an IC50 of 770 nM.

Take `CC(=O)N1CC[C@@H](n2ncc(Cl)c2C(=O)Nc2ncc(C#Cc3ccccc3)cc2F)C1` [Compound 203, (R)-1-(1-acetylpyrrolidin-3-yl)-4-chloro-N-(3-fluoro-5-(phenylethynyl)pyridin-2-yl)-1H-pyrazole-5-carboxamide]: the IC50 was 310 nM.

`Cc1cc(C#Cc2ccccc2)cnc1NC(=O)c1c(Cl)cnn1-c1ccc2occc2c1` [Compound 304, 1-(benzofuran-5-yl)-4-chloro-N-(3-methyl-5-(phenylethynyl)pyridin-2-yl)-1H-pyrazole-5-carboxamide] returned an IC50 of 570 nM.

Compound `Cc1cc(C#Cc2ccc(F)cc2)cnc1NC(=O)c1c(Cl)cnn1CC1C2CC1CN(C(=O)C(C)C)C2` (stereo not shown) [Compound 314, 4-chloro-N-(5-((4-fluorophenyl)ethynyl)-3-methylpyridin-2-yl)-1-((3-isobutyryl-3-azabicyclo[3.1.1]heptan-6-yl)methyl)-1H-pyrazole-5-carboxamide] came in with a half-inhibitory concentration (IC50) of 590 nM.

As for `CC(C)(C)OC(=O)N1CCCC(n2ncc(Cl)c2C(=O)Nc2ncc(C#Cc3ccccc3)cc2F)CC1` (stereo not shown) [Compound 225, tert-butyl 4-(4-chloro-5-((3-fluoro-5-(phenylethynyl)pyridin-2-yl)carbamoyl)-1H-pyrazol-1-yl)azepane-1-carboxylate], the IC50 was 350 nM.

As for `O=C(Nc1ncc(C#Cc2ccccc2)cc1F)c1c(Cl)cnn1-c1ccc2c(c1)OCO2` [Compound 227, 1-(benzo[d][1,3]dioxol-5-yl)-4-chloro-N-(3-fluoro-5-(phenylethynyl)pyridin-2-yl)-1H-pyrazole-5-carboxamide], the IC50 turned out to be 350 nM.

In turn, `Cc1cc(C#Cc2ccccc2)cc(F)c1NC(=O)c1c(Cl)cnn1C[C@H]1CCOC1` [Compound 219, (R)-4-chloro-N-(2-fluoro-6-methyl-4-(phenylethynyl)phenyl)-1-((tetrahydrofuran-3-yl)methyl)-1H-pyrazole-5-carboxamide] came in with a 50% inhibitory concentration (IC50) of 340 nM.

Still in this experiment, the particulars now being: TREK-1 Thallium (Tl+) flux assay; values without footnote *12 are Method 1.
Regarding `CC(=O)N1CCC(n2ncc(Cl)c2C(=O)Nc2ncc(C#Cc3cccs3)cc2F)CC1` [Compound 18, 1-(1-acetylpiperidin-4-yl)-4-chloro-N-(3-fluoro-5-(thiophen-2-ylethynyl)pyridin-2-yl)-1H-pyrazole-5-carboxamide], half-maximal inhibition (IC50) was put at 60 nM.

In turn, `O=C(Nc1ncc(C#Cc2cccs2)cc1F)c1c(Cl)cnn1CC1CCOCC1` [Compound 69, 4-chloro-N-(3-fluoro-5-(thiophen-2-ylethynyl)pyridin-2-yl)-1-((tetrahydro-2H-pyran-4-yl)methyl)-1H-pyrazole-5-carboxamide] showed an IC50 of 160 nM.

On to `CC(C)(C)OC(=O)N1CCC(C#N)(Cn2ncc(Cl)c2C(=O)Nc2ncc(C#Cc3ccccc3)cc2F)CC1` [Compound 83, tert-butyl 4-((4-chloro-5-((3-fluoro-5-(phenylethynyl)pyridin-2-yl)carbamoyl)-1H-pyrazol-1-yl)methyl)-4-cyanopiperidine-1-carboxylate], for which the concentration for half-maximal inhibition (IC50) came out at 160 nM.

With `CC(=O)N1CC[C@@H](Cn2ncc(Cl)c2C(=O)Nc2ncc(C#Cc3ccccc3)cc2F)[C@@H](F)C1` [Compound 88, 1-(((3R,4S)-1-acetyl-3-fluoropiperidin-4-yl)methyl)-4-chloro-N-(3-fluoro-5-(phenylethynyl)pyridin-2-yl)-1H-pyrazole-5-carboxamide], inhibition was half-maximal at 170 nM (IC50).

On to `CC(=O)N1CCCC(Cn2ncc(Cl)c2C(=O)Nc2ncc(C#Cc3ccccc3)cc2C)C1` (stereo not shown) [Compound 176, 1-((1-acetylpiperdin-3-yl)methyl)-4-chloro-N-(3-methyl-5-(phenylethynyl)pyridin-2-yl)-1H-pyrazole-5-carboxamide], for which the IC50 was determined as 270 nM.

Compound `O=C(Nc1ncc(C#Cc2ccccc2)cc1F)c1c(Cl)cnn1CC1CCOCC1` [Compound 68, 4-chloro-N-(3-fluoro-5-(phenylethynyl)pyridin-2-yl)-1-((tetrahydro-2H-pyran-4-yl)methyl)-1H-pyrazole-5-carboxamide] came in with a half-inhibitory concentration (IC50) of 160 nM.

`CC(=O)N1CCC(n2ncc(Cl)c2C(=O)Nc2ncc(C#Cc3cccs3)cc2C)CC1` [Compound 19, 1-(1-acetylpiperidin-4-yl)-4-chloro-N-(3-methyl-5-(thiophen-2-ylethynyl)pyridin-2-yl)-1H-pyrazole-5-carboxamide]: half-maximal inhibition (IC50) was put at 60 nM.

In turn, `CC(=O)N1CCC(CCn2ncc(Cl)c2C(=O)Nc2ncc(C#Cc3cccc(F)c3)cc2C)CC1` [Compound 133, 1-(2-(1-acetylpiperidin-4-yl)ethyl)-4-chloro-N-(5-((3-fluorophenyl)ethynyl)-3-methylpyridin-2-yl)-1H-pyrazole-5-carboxamide] displayed an IC50 of 220 nM.

The compound `CC(C1CCN(C(=O)OC(C)(C)C)CC1)n1ncc(Cl)c1C(=O)Nc1ncc(C#Cc2ccccc2)cc1F` (stereo not shown) [Compound 78, tert-butyl 4-(1-(4-chloro-5-((3-fluoro-5-(phenylethynyl)pyridin-2-yl)carbamoyl)-1H-pyrazol-1-yl)ethyl)piperidine-1-carboxylate] gave an IC50 of 160 nM.

Take `CC(=O)N1CCOC(Cn2ncc(Cl)c2C(=O)Nc2ncc(C#Cc3ccccc3)cc2F)C1` (stereo not shown) [Compound 27, 1-((4-acetylmorpholin-2-yl)methyl)-4-chloro-N-(3-fluoro-5-(phenylethynyl)pyridin-2-yl)-1H-pyrazole-5-carboxamide]: half-maximal inhibition (IC50) was put at 90 nM.

On to `Cc1cc(C#Cc2ccccc2)cnc1NC(=O)c1c(Cl)cnn1CC1(C#N)CCN(C(=O)C(C)C)CC1` [Compound 49, 4-chloro-1-((4-cyano-1-isobutyrylpiperidin-4-yl)methyl)-N-(3-methyl-5-(phenylethynyl)pyridin-2-yl)-1H-pyrazole-5-carboxamide], for which the IC50 amounted to 130 nM.

In turn, `CC(=O)N[C@H]1C[C@H](n2ncc(Cl)c2C(=O)Nc2ncc(C#Cc3ccccc3)cc2C)C1` [Compound 156, 1-(trans-3-acetamidocyclobutyl)-4-chloro-N-(3-methyl-5-(phenylethynyl)pyridin-2-yl)-1H-pyrazole-5-carboxamide] returned an IC50 of 240 nM.

The experiment is the same for the next values; noted with them: read-out: Tl^+ Assay % inhibition at 30 uM (Minus value indicates activation of TREK-1); at 30 uM; CHO-K1 cells stably expressing human TREK-1; minus = activation.
With `CC(=O)N1CCC(CCn2cc(Cl)c(C(=O)Nc3ncc(C#Cc4cccc(F)c4)cc3C)n2)CC1` [Compound 439, 1-(2-(1-acetylpiperidin-4-yl)ethyl)-4-chloro-N-(5-((3-fluorophenyl)ethynyl)-3-methylpyridin-2-yl)-1H-pyrazol-3-carboxamide], the inhibition at 30 µM was -163%.

Take `CC(=O)N1CCC(CCn2cc(Cl)c(C(=O)Nc3ncc(C#Cc4ccccc4F)cc3C)n2)CC1` [Compound 445, 1-(2-(1-acetylpiperidin-4-yl)ethyl)-4-chloro-N-(5-((2-fluorophenyl)ethynyl)-3-methylpyridin-2-yl)-1H-pyrazole-3-carboxamide]: the inhibition at 30 µM was -115%.

What is called IC50 is the point on the concentration scale where inhibition reaches its midpoint. Read a low IC50 as greater potency in that assay. One may read the inhibition as the drop in the measured response relative to a control, in per cent.
